Laboratory results as given in ChEMBL document CHEMBL1158645, “Antitumor agents 37. The isolation and structural elucidation of isohelenol, a new antileukemic sesquiterpene lactone, and isohelenalin from Helenium microcephalum” (1979).

Tested on: P388
Experiment: In vivo antitumor activity against mouse P388 lymphocytic leukemia at 12.5 mg/kg
Assay type: functional

SMILES: C[C@@H]1C[C@H]2OC(=O)C(CO)=C2[C@H](O)[C@]2(C)C(=O)C=C[C@@H]12 [ISOHELENOL]
- T/C: 133%
